Values quoted from earlier work, collected in US20140134224A1, “STABLE COMPOSITION OF HOCI, A PROCESS FOR ITS PRODUCTION AND USES THEREOF” (priority 2011, published 2014).
Where two headings read alike, the source gives them in different places.

Tests used:
B. metiens spores = conditions: 25 ppm available chlorine
[1] = unstabilised HOCl solutions of the prior art
[2] = Kapoor 1968

OCl [HOCl, Hypochlorous (or hydrochlorous) acid]
time taken to produce a 99% kill of spores (B. metiens spores; pH 6): 2.5 min | time taken to produce a 99% kill of spores (B. metiens spores; pH 7): 3.6 min | time taken to produce a 99% kill of spores (B. metiens spores; pH 8): 5 min | time taken to produce a 99% kill of spores (B. metiens spores; pH 9): 19.5 min | time taken to produce a 99% kill of spores (B. metiens spores; pH 9.35): 35.5 min | time taken to produce a 99% kill of spores (B. metiens spores; pH 10): 131 min | time taken to produce a 99% kill of spores (B. metiens spores; pH 12.86): 465 min | half-life [1]: around 48 hours

OCl [hypochlorite ion, hypochlorite]
times less effective than hypochlorous acid as a disinfectant [2]: up to 120 times
